In the supplement of paper PMC10307832 one finds relative viability data, which are given here for eight cell lines.

What all share (test): relative viability (nuclei count vs DMSO), 5 days (fraction); higher = more cells survive
Compound in the test “Irinotecan + Phenformin”: CCc1c2c(nc3ccc(OC(=O)N4CCC(N5CCCCC5)CC4)cc13)-c1cc3c(c(=O)n1C2)COC(=O)[C@]3(O)CC [Irinotecan] + N=C(N)NC(=N)NCCc1ccccc1 [Phenformin] (partner 250 µM)
Put shortly: (§1)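 A single step with final 0.05% Triton X-100, 1% formaldehyde and 1 ug/ml Hoechst fixed the cells and stained nuclei 5 days after treatment. Lung cancer cell lines in 1536-well plates had been treated by pin tool the day after seeding with one drug alone or a fixed anchor-drug dose plus five library-drug doses (not always all listed) in √10 steps, and nuclei were counted on 4× images. Relative viability is the ratio of nuclei in treated wells to nuclei in vehicle wells, taken as the median of duplicate plates.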

Compound in the test “RU-SKI 43 + Pictilisib”: CC[C@@H](C)CNCC(=O)N1CCC2=C([C@@H]1COC3=CC=CC(=C3)C)C=CS2 [RU-SKI 43] + CS(=O)(=O)N1CCN(Cc2cc3nc(-c4cccc5[nH]ncc45)nc(N4CCOCC4)c3s2)CC1 [Pictilisib] (partner 1 µM)
Put shortly: as §1

Compound in the test “MK-8033 + Crizotinib”: Cn1cc(-c2cnc3ccc4ccc(CS(=O)(=O)NCc5ccccn5)cc4c(=O)c3c2)cn1 [MK-8033] + C[C@@H](Oc1cc(-c2cnn(C3CCNCC3)c2)cnc1N)c1c(Cl)ccc(F)c1Cl [Crizotinib] (partner 1 µM)
Put shortly:
as §1

Compound in the test “Irinotecan + Olaparib”: CCc1c2c(nc3ccc(OC(=O)N4CCC(N5CCCCC5)CC4)cc13)-c1cc3c(c(=O)n1C2)COC(=O)[C@]3(O)CC [Irinotecan] + O=C(c1cc(Cc2n[nH]c(=O)c3ccccc23)ccc1F)N1CCN(C(=O)C2CC2)CC1 [Olaparib] (partner 8 µM)
In outline:
as §1

For the cell line HARA, the relative viability with Irinotecan + Phenformin (first compound 0.6325 µM) was 0.351; with Irinotecan + Phenformin (first compound 2 µM) it was 0.157; in the test with Irinotecan + Phenformin (first compound 6.325 µM), 0.11; with Irinotecan + Phenformin (first compound 20 µM), 0.113; with RU-SKI 43 + Pictilisib (first compound 0.1 µM) it was 0.524; with RU-SKI 43 + Pictilisib (first compound 0.3162 µM) it was 0.512. The relative viability in the test with RU-SKI 43 + Pictilisib (first compound 1 µM) was 0.435; with RU-SKI 43 + Pictilisib (first compound 3.162 µM) it was 0.458; with RU-SKI 43 + Pictilisib (first compound 10 µM), 0.318; with MK-8033 + Crizotinib (first compound 0.02 µM) it was 0.964; with MK-8033 + Crizotinib (first compound 0.06325 µM), 1.05; in the test with MK-8033 + Crizotinib (first compound 0.2 µM), 0.921. Also, the relative viability in the test with MK-8033 + Crizotinib (first compound 0.6325 µM) was 1.08; with MK-8033 + Crizotinib (first compound 2 µM) it was 1.04; in the test with Irinotecan + Olaparib (first compound 0.6325 µM), 0.466; with Irinotecan + Olaparib (first compound 2 µM), 0.405; with Irinotecan + Olaparib (first compound 6.325 µM) it was 0.2; with Irinotecan + Olaparib (first compound 20 µM) it was 0.262.
For HCC-15, the relative viability with Irinotecan + Phenformin (first compound 2 µM) came to 0.331; in the test with Irinotecan + Phenformin (first compound 6.325 µM), 0.183; in the test with Irinotecan + Phenformin (first compound 20 µM), 0.12; in the test with RU-SKI 43 + Pictilisib (first compound 0.1 µM), 0.886; with RU-SKI 43 + Pictilisib (first compound 0.3162 µM) it was 0.887; in the test with RU-SKI 43 + Pictilisib (first compound 1 µM), 0.872. Further, the relative viability amounted to 0.721 with RU-SKI 43 + Pictilisib (first compound 3.162 µM); 0.679 with RU-SKI 43 + Pictilisib (first compound 10 µM); 0.778 with MK-8033 + Crizotinib (first compound 0.02 µM); 0.796 with MK-8033 + Crizotinib (first compound 0.06325 µM); 0.762 with MK-8033 + Crizotinib (first compound 0.2 µM); 0.816 with MK-8033 + Crizotinib (first compound 0.6325 µM). Also, the relative viability with MK-8033 + Crizotinib (first compound 2 µM) turned out to be 0.808; with Irinotecan + Olaparib (first compound 0.6325 µM), 0.213; with Irinotecan + Olaparib (first compound 2 µM), 0.279; with Irinotecan + Olaparib (first compound 6.325 µM) it was 0.202; with Irinotecan + Olaparib (first compound 20 µM), 0.146.
In the case of HCC-44, the relative viability is 0.251 in the test with Irinotecan + Phenformin (first compound 2 µM); 0.147 with Irinotecan + Phenformin (first compound 6.325 µM); 0.211 with Irinotecan + Phenformin (first compound 20 µM); 0.668 with RU-SKI 43 + Pictilisib (first compound 0.1 µM); 0.504 with RU-SKI 43 + Pictilisib (first compound 0.3162 µM); 0.77 with RU-SKI 43 + Pictilisib (first compound 1 µM). Also, the relative viability in the test with RU-SKI 43 + Pictilisib (first compound 3.162 µM) turned out to be 0.675; with RU-SKI 43 + Pictilisib (first compound 10 µM) it was 0.566; with MK-8033 + Crizotinib (first compound 0.02 µM) it was 0.808; with MK-8033 + Crizotinib (first compound 0.06325 µM), 0.732; with MK-8033 + Crizotinib (first compound 0.2 µM), 0.755; in the test with MK-8033 + Crizotinib (first compound 0.6325 µM), 0.746. The relative viability was 0.756 with MK-8033 + Crizotinib (first compound 2 µM); 0.754 with Irinotecan + Olaparib (first compound 0.6325 µM); 0.423 with Irinotecan + Olaparib (first compound 2 µM); 0.378 with Irinotecan + Olaparib (first compound 6.325 µM); 0.425 with Irinotecan + Olaparib (first compound 20 µM).
Turning to HCC-78, the relative viability was found to be 0.733 in the test with Irinotecan + Phenformin (first compound 0.6325 µM); 0.546 with Irinotecan + Phenformin (first compound 2 µM); 0.257 with Irinotecan + Phenformin (first compound 6.325 µM); 0.229 with Irinotecan + Phenformin (first compound 20 µM); 0.24 in the test with RU-SKI 43 + Pictilisib (first compound 0.1 µM); 0.232 in the test with RU-SKI 43 + Pictilisib (first compound 0.3162 µM). Also, the relative viability with RU-SKI 43 + Pictilisib (first compound 1 µM) came to 0.278; in the test with RU-SKI 43 + Pictilisib (first compound 3.162 µM), 0.176; in the test with RU-SKI 43 + Pictilisib (first compound 10 µM) it was 0.191; in the test with MK-8033 + Crizotinib (first compound 0.02 µM), 0.336; with MK-8033 + Crizotinib (first compound 0.06325 µM), 0.316; with MK-8033 + Crizotinib (first compound 0.2 µM), 0.344. In addition, the relative viability in the test with MK-8033 + Crizotinib (first compound 2 µM) turned out to be 0.32; with Irinotecan + Olaparib (first compound 0.6325 µM), 0.492; with Irinotecan + Olaparib (first compound 2 µM) it was 0.332; with Irinotecan + Olaparib (first compound 6.325 µM) it was 0.233; with Irinotecan + Olaparib (first compound 20 µM) it was 0.343.
Consider HCC-366, for which the relative viability in the test with Irinotecan + Phenformin (first compound 0.6325 µM) worked out at 0.495; with Irinotecan + Phenformin (first compound 2 µM), 0.371; with Irinotecan + Phenformin (first compound 6.325 µM), 0.0734; with Irinotecan + Phenformin (first compound 20 µM) it was 0.078; in the test with RU-SKI 43 + Pictilisib (first compound 0.1 µM) it was 0.134; with RU-SKI 43 + Pictilisib (first compound 0.3162 µM), 0.196. Also, the relative viability came to 0.175 in the test with RU-SKI 43 + Pictilisib (first compound 1 µM); 0.221 with RU-SKI 43 + Pictilisib (first compound 3.162 µM); 0.137 with RU-SKI 43 + Pictilisib (first compound 10 µM); 0.45 with MK-8033 + Crizotinib (first compound 0.02 µM); 0.525 with MK-8033 + Crizotinib (first compound 0.06325 µM); 0.59 with MK-8033 + Crizotinib (first compound 0.2 µM). Further, the relative viability worked out at 0.363 in the test with MK-8033 + Crizotinib (first compound 0.6325 µM); 0.504 with MK-8033 + Crizotinib (first compound 2 µM); 0.206 with Irinotecan + Olaparib (first compound 0.6325 µM); 0.15 with Irinotecan + Olaparib (first compound 2 µM); 0.0823 in the test with Irinotecan + Olaparib (first compound 6.325 µM); 0.0649 with Irinotecan + Olaparib (first compound 20 µM).
For the cell line HCC-827, the relative viability with Irinotecan + Phenformin (first compound 0.6325 µM) came out at 0.345; with Irinotecan + Phenformin (first compound 2 µM), 0.349; with Irinotecan + Phenformin (first compound 6.325 µM), 0.159; in the test with Irinotecan + Phenformin (first compound 20 µM) it was 0.209; with RU-SKI 43 + Pictilisib (first compound 0.1 µM), 0.994; with RU-SKI 43 + Pictilisib (first compound 0.3162 µM), 0.97. Further, the relative viability in the test with RU-SKI 43 + Pictilisib (first compound 1 µM) amounted to 1.19; in the test with RU-SKI 43 + Pictilisib (first compound 3.162 µM), 1.05; with RU-SKI 43 + Pictilisib (first compound 10 µM), 0.94; with MK-8033 + Crizotinib (first compound 0.02 µM), 0.925; with MK-8033 + Crizotinib (first compound 0.2 µM), 0.955; with MK-8033 + Crizotinib (first compound 0.6325 µM), 0.874. In addition, the relative viability with MK-8033 + Crizotinib (first compound 2 µM) was 0.885; with Irinotecan + Olaparib (first compound 0.6325 µM) it was 0.379; with Irinotecan + Olaparib (first compound 2 µM), 0.236; with Irinotecan + Olaparib (first compound 6.325 µM) it was 0.212; with Irinotecan + Olaparib (first compound 20 µM), 0.165.
For HOP-62, the relative viability was 0.443 with Irinotecan + Phenformin (first compound 0.6325 µM); 0.532 in the test with Irinotecan + Phenformin (first compound 2 µM); 0.267 with Irinotecan + Phenformin (first compound 6.325 µM); 0.204 with Irinotecan + Phenformin (first compound 20 µM); 0.767 with RU-SKI 43 + Pictilisib (first compound 0.1 µM); 0.69 with RU-SKI 43 + Pictilisib (first compound 0.3162 µM). For the same cell line, the relative viability with RU-SKI 43 + Pictilisib (first compound 1 µM) was determined as 0.834; in the test with RU-SKI 43 + Pictilisib (first compound 3.162 µM), 0.769; with RU-SKI 43 + Pictilisib (first compound 10 µM), 0.611; in the test with MK-8033 + Crizotinib (first compound 0.02 µM), 0.857; in the test with MK-8033 + Crizotinib (first compound 0.06325 µM), 0.899; with MK-8033 + Crizotinib (first compound 0.2 µM), 0.808. Moreover, the relative viability was 0.894 with MK-8033 + Crizotinib (first compound 0.6325 µM); 0.878 with MK-8033 + Crizotinib (first compound 2 µM); 0.201 with Irinotecan + Olaparib (first compound 2 µM); 0.147 with Irinotecan + Olaparib (first compound 6.325 µM); 0.169 in the test with Irinotecan + Olaparib (first compound 20 µM).
For IA-LM, the relative viability was 0.353 with RU-SKI 43 + Pictilisib (first compound 0.1 µM); 0.321 in the test with RU-SKI 43 + Pictilisib (first compound 0.3162 µM); 0.397 with RU-SKI 43 + Pictilisib (first compound 1 µM); 0.385 with RU-SKI 43 + Pictilisib (first compound 3.162 µM); 0.404 with RU-SKI 43 + Pictilisib (first compound 10 µM); 0.739 with MK-8033 + Crizotinib (first compound 0.02 µM). In addition, the relative viability amounted to 0.667 with MK-8033 + Crizotinib (first compound 0.06325 µM); 0.948 in the test with MK-8033 + Crizotinib (first compound 0.2 µM); 0.667 in the test with MK-8033 + Crizotinib (first compound 0.6325 µM); 0.899 with MK-8033 + Crizotinib (first compound 2 µM); 0.537 with Irinotecan + Olaparib (first compound 0.6325 µM); 0.177 with Irinotecan + Olaparib (first compound 2 µM). In addition, the relative viability in the test with Irinotecan + Olaparib (first compound 6.325 µM) amounted to 0.166; with Irinotecan + Olaparib (first compound 20 µM), 0.0811.
